One data set deals with HIV-1 SG3.1. Briefly: microbe, parasite or virus in culture. To be noted: for Therapeutic index (CC50/IC50): CC50 in TZM-bl cells; for IC50 / IC90 / inhibition at 25 µg/mL: Human immunodeficiency virus 1, TZM-bl; for IC50 / IC90: 48 h; for IC50: read-out: IC50 HIV-1, TZM-bl cells, 48 h; for IC90: read-out: IC90 HIV-1; for inhibition at 25 µg/mL: read-out: MPI (%) 25 μg/mL. An excerpt:
The HIV-1 SG3.1 is a reference subtype B strain that uses the CXCR4 coreceptor. It was obtained by transfection of HEK293T cells with pSG3.1 plasmid using jetPRIME transfection reagent (Polyplus-transfection SA, Illkirch, France), according to the instructions of the manufacturer.
Briefly, TZM-bl cells were infected with 200 TCID50 of HIV-1 or HIV-2 in the presence of serial-fold dilutions of the compounds in the growth medium, supplemented with diethylaminoethyl-dextran (DEAE-dextran). After 48 h of infection, luciferase expression was quantified with Pierce Firefly Luc One-Step Glow Assay Kit (ThermoFisher Scientific, Rockford, United States), according to the instructions of the manufacturer. For each compound dilution, the assay was set up in triplicate wells. Virus controls, cell controls, and inhibitors controls (drugs with a known action against each virus) were employed.

Data set [1] is described as follows: Cellular viability assay (alamarBlue) in TZM-bl cells. Format: cell-based. To be noted: human, 50% cytotoxic concentration. How it is done: Before the antiviral activity screening, all spirocyclopentene-β-lactams were assayed for their in vitro cytotoxic activity (CC50) in TZM-bl cells (Table 4).
TZM-bl cells (AIDS Research and Reference Reagent Program, National Institutes of Health, United States) were cultured in complete growth medium consisting of Dulbecco’s Minimal Essential Medium (DMEM) supplemented with 10% fetal bovine serum (FBS), 100 U/ml of penicillin–streptomycin (Gibco/Invitrogen, United States), 1 mM of sodium pyruvate (Gibco/Invitrogen, United States), 2 mM of L-glutamine (Gibco/Invitrogen, United States), and 1 mM of non-essential amino acids (Gibco/Invitrogen, United States). Cell cultures were maintained at 37°C in 5% CO2.
The in vitro cytotoxicity of test compounds was evaluated in TZM-bl cells using alamarBlue cell viability reagent (Life Technologies, United States), according to the instructions of the manufacturer. The cells were cultured in the presence and absence of serial-fold dilutions of the test compounds. Each dilution of each compound was performed in triplicate wells. Medium controls (only growth medium), cell controls (cells without test compound), and cytotoxicity controls (a compound that kills cells) were employed in each assay.

Each structure is given as a SMILES string. “Also recorded” adds a separate entry of the source.

Consider `CC1(C)SC2N(C(=O)C23CC=C(C(=O)OCC=Cc2ccccc2)C3C(=O)c2ccc(Br)cc2)C1C(=O)OC(c1ccccc1)c1ccccc1` (stereo not shown) [Compound 14i, (1’R,2’R)-Benzhydryl spiro[(2-(4-bromobenzoyl)-3-cinnamyloxycarbonylcyclopent-3-ene)-1’,6-penicillanate]], for which the melting point (commonly the temperature, or range, at which the solid turns liquid) was 89.1 to 91.1 °C. The “Therapeutic index (CC50/IC50)” value in the data set on HIV-1 SG3.1 (HIV-1) came to 467.62. Besides, in the data set on HIV-1 SG3.1, the IC50 (usually the point on the concentration scale where inhibition reaches its midpoint) turned out to be 0.143 µM, the IC90 (usually the concentration at which the effect reaches the 90% level) stood at 0.305 µM and the inhibition at 25 µg/mL came out at 95%. In addition, the CC50 (commonly the concentration giving 50% cytotoxicity) in data set [1] is 66.9 µM.
On to `CC1(C)SC2N(C(=O)C23CC=C(C(=O)OCC=Cc2ccccc2)C3C(=O)c2ccc(Cl)cc2)C1C(=O)OC(c1ccccc1)c1ccccc1` (stereo not shown) [Compound 14f, (1’R,2’R)-Benzhydryl spiro[(2-(4-chlorobenzoyl)-3-cinnamyloxycarbonylcyclopent-3-ene)-1’,6-penicillanate]], for which the melting point lay in the range of 81.7 to 83.7 °C. The “Therapeutic index (CC50/IC50)” value in the data set with HIV-1 SG3.1 (HIV-1) is on record as 1305.67. In the data set on HIV-1 SG3.1, the concentration for half-maximal inhibition (IC50) is 0.067 µM, the IC90 was 0.198 µM and the inhibition at 25 µg/mL came out at 97%. The molecule further had a CC50 in data set [1] of 87.5 µM.
Take `CC1(C)SC2N(C(=O)C23C(C(=O)OCc2ccccc2)=CCC3C(=O)c2ccc(F)cc2)C1C(=O)OC(c1ccccc1)c1ccccc1` (stereo not drawn) [Compound 13a, (1′R,2′R)-benzhydryl spiro[(2-(4-fluorobenzoyl)-5-benzyloxycarbonylcyclopent-4-ene)-1′,6-penicillanate]]: the melting point lay within 73.9 to 75.9 °C. In addition, in the data set with HIV-1 SG3.1, the inhibition at 25 µg/mL worked out at 0%. The molecule also came in with a CC50 in data set [1] of 64.8 µM.
`C#CCOC(=O)C1=CCC2(C(=O)N3C(C(=O)OC(c4ccccc4)c4ccccc4)C(C)(C)SC32)C1C(=O)c1ccccc1` (stereo not shown) [Compound 9m, (1’R,2’R)-Benzhydryl spiro[(2-benzoyl-3-(prop-2-yn-1-yloxycarbonyl)cyclopent-3-ene)-1’,6-penicillanate]] yielded a melting point of 62.2 to 64.8 °C. Besides, the “Therapeutic index (CC50/IC50)” value with HIV-1 SG3.1 (HIV-1) came out at 296.11. Moreover, in the data set with HIV-1 SG3.1, the IC50 was 0.203 µM, the IC90 was determined as 0.437 µM and the inhibition at 25 µg/mL worked out at 94%. The molecule further displayed a 50% cytotoxic concentration (CC50) in data set [1] of 60.1 µM.
`COc1cccc(OC(=O)C2=CCC3(C(=O)N4C(C(=O)OC(c5ccccc5)c5ccccc5)C(C)(C)SC43)C2C(=O)c2ccccc2)c1` (stereo not shown) [Compound 9c, (1’R,2’R)-Benzhydryl spiro[(2-benzoyl-3-(3-methoxyphenoxycarbonyl)cyclopent-3-ene)-1’,6-penicillanate]] showed a melting point of 67.8 to 69.7 °C. In addition, the inhibition at 25 µg/mL with HIV-1 SG3.1 worked out at 0%. For the same molecule, the CC50 in data set [1] was 58.1 µM.
Regarding `CC1(C)SC2N(C(=O)C23C(C(=O)OCc2ccccc2)=CCC3C(=O)c2ccc(Cl)cc2)C1C(=O)OC(c1ccccc1)c1ccccc1` (stereo not shown) [Compound 13b, (1’R,2’R)-Benzhydryl spiro[(2-(4-chlorobenzoyl)-5-benzyloxycarbonylcyclopent-4-ene)-1’,6-penicillanate]], the melting point fell in the range of 116.3 to 118.3 °C. Further, the inhibition at 25 µg/mL with HIV-1 SG3.1 is 0%. Besides, in data set [1], the CC50 was determined as 63.7 µM.
Molecule `CC1(C)SC2N(C(=O)C23CC=C(C(=O)OCc2ccccc2)C3C(=O)c2ccc(C(F)(F)F)cc2)C1C(=O)OC(c1ccccc1)c1ccccc1` (stereo not shown) [Compound 12e, (1’R,2’R)-Benzhydryl spiro[(2-(4-trifluoromethylbenzoyl)-3-benzyloxycarbonylcyclopent-3-ene)-1’,6-penicillanate]] yielded a melting point of 134.1 to 135.5 °C. In the data set on HIV-1 SG3.1 (HIV-1), the “Therapeutic index (CC50/IC50)” value is reported as 49.39. In the data set with HIV-1 SG3.1, the IC50 is 1.3 µM, the concentration for an effect of 90% (IC90) came to 1.5 µM and the inhibition at 25 µg/mL was 76%. Besides, the CC50 in data set [1] worked out at 64.4 µM.
Consider `CC1(C)SC2N(C(=O)C23CC=C(C(=O)OCc2ccc(F)cc2)C3C(=O)c2ccccc2)C1C(=O)OC(c1ccccc1)c1ccccc1` (stereo not shown) [Compound 9l, (1’R,2’R)-Benzhydryl spiro[(2-benzoyl-3-(4-fluorobenzyloxycarbonyl)cyclopent-3-ene)-1’,6-penicillanate]], for which the melting point lay in the range of 67.2 to 69.3 °C. Also, the “Therapeutic index (CC50/IC50)” value with HIV-1 SG3.1 (HIV-1) was found to be 502.97. Moreover, in the data set with HIV-1 SG3.1, the IC50 is 0.111 µM, the IC90 came out at 0.221 µM and the inhibition at 25 µg/mL worked out at 100%. The CC50 in data set [1] amounted to 55.8 µM.
Consider `CC1(C)SC2N(C(=O)C23C(C(=O)OCc2ccccc2)=CCC3C(=O)c2ccc([N+](=O)[O-])cc2)C1C(=O)OC(c1ccccc1)c1ccccc1` (stereo not shown) [Compound 13d, (1’R,2’R)-Benzhydryl spiro[(2-(4-nitrobenzoyl)-5-benzyloxycarbonylcyclopent-4-ene)-1’,6-penicillanate]], for which the melting point was in the range of 122.7 to 124.7 °C. For the same molecule, the inhibition at 25 µg/mL in the data set on HIV-1 SG3.1 was found to be 0%. In data set [1], this molecule registered a CC50 of 73.8 µM.
`CC1(C)SC2N(C(=O)C23CC=C(C(=O)OCc2ccccc2)C3C(=O)c2ccc(Cl)cc2)C1C(=O)OC(c1ccccc1)c1ccccc1` (stereo not shown) [Compound 12b, (1’R,2’R)-Benzhydryl spiro[(2-(4-chlorobenzoyl)-3-benzyloxycarbonylcyclopent-3-ene)-1’,6-penicillanate]] yielded a melting point of 145.2 to 146.5 °C. Besides, the “Therapeutic index (CC50/IC50)” value with HIV-1 SG3.1 (HIV-1) is recorded as 888.73. Besides, in the data set on HIV-1 SG3.1, the concentration for half-maximal inhibition (IC50) stood at 0.063 µM, the 90% effect concentration (IC90) came out at 0.104 µM and the inhibition at 25 µg/mL came to 92%. In data set [1], the CC50 stood at 56 µM.
Turning to `CC1(C)SC2N(C(=O)C23CC=C(C(=O)OCc2ccccc2)C3C(=O)c2ccc3ccccc3c2)C1C(=O)OC(c1ccccc1)c1ccccc1` (stereo not shown) [Compound 12h, (1’R,2’R)-Benzhydryl spiro[(2-naphthoyl-3-benzyloxycarbonylcyclopent-3-ene)-1’,6-penicillanate]], the melting point fell in the range of 81.5 to 83.5 °C. The inhibition at 25 µg/mL in the data set with HIV-1 SG3.1 was 0%. This molecule yielded a CC50 in data set [1] of 73.6 µM.
`CC1(C)SC2N(C(=O)C23CC=C(C(=O)OCc2ccc([N+](=O)[O-])cc2)C3C(=O)c2ccccc2)C1C(=O)OC(c1ccccc1)c1ccccc1` (stereo not shown) [Compound 9h, (1’R,2’R)-Benzhydryl spiro[(2-benzoyl-3-(4-nitrobenzyloxycarbonyl)cyclopent-3-ene)-1’,6-penicillanate]] showed a melting point of 81.2 to 83.1 °C. In addition, the “anti-HIV activity (in words)” value in the data set on HIV-1 SG3.1 (HIV-1) was “inactive; also recorded: total loss of antiviral activity”. Moreover, the inhibition at 25 µg/mL in the data set with HIV-1 SG3.1 worked out at 0%. Moreover, the CC50 in data set [1] came out at 56 µM.
As to `CC1(C)SC2N(C(=O)C23C(C(=O)OCc2ccccc2)=CCC3C(=O)c2cc(F)cc(F)c2)C1C(=O)OC(c1ccccc1)c1ccccc1` (stereo not shown) [Compound 13f, (1’R,2’R)-Benzhydryl spiro[(2-(3,5-difluorobenzoyl)-5-benzyloxycarbonylcyclopent-4-ene)-1’,6-penicillanate]], the melting point was in the range of 134.8 to 136.8 °C. For the same molecule, in the data set with HIV-1 SG3.1, the inhibition at 25 µg/mL was 0%. The CC50 in data set [1] worked out at 58.8 µM.
For `Cc1ccc(COC(=O)C2=CCC3(C(=O)N4C(C(=O)OC(c5ccccc5)c5ccccc5)C(C)(C)SC43)C2C(=O)c2ccc(Cl)cc2)cc1` (stereo not shown) [Compound 14e, (1’R,2’R)-Benzhydryl spiro[(2-(4-chlorobenzoyl)-3-(4-methylbenzyloxycarbonyl)cyclopent-3-ene)-1’,6-penicillanate]], the melting point lay in the range of 79.5 to 81.5 °C. Moreover, the “Therapeutic index (CC50/IC50)” value in the data set on HIV-1 SG3.1 (HIV-1) was determined as 474.41. In the data set on HIV-1 SG3.1, the 50% inhibitory concentration (IC50) turned out to be 0.211 µM, the IC90 was found to be 0.72 µM and the inhibition at 25 µg/mL came to 94%. Also, the midpoint of cytotoxicity in data set [1], the CC50, lay at 100 µM.

Values taken from article PMC9585939, “Unveiling a family of spiro-β-lactams with anti-HIV and antiplasmodial activity via phosphine-catalyzed [3+2] annulation of 6-alkylidene-penicillanates and allenoates” (Frontiers in Chemistry, 2022).
